According to patent publication US7772180B2, “Hepatitis C virus inhibitors” (Bristol-Myers Squibb Company, priority 2006, dated 2010):

Key:
[1] = biological target: T1, HCV NS3/4A protease complex, H77 strain (Hepatitis C virus genotype 1a, UniProt P27958, C1454S/C1711G); assay: FRET peptide assay to monitor HCV NS3/4A proteolytic activity (H77 strain); type: biochemical; conditions: read-out: IC50 against the NS3/4A H77 strain
T1 construct: DNA encoding the recombinant HCV NS3/4A protease complex (amino acids 1027 to 1711) for these strains; made in house; host or cells: Escherichia coli BL21 (DE3), pET21b
T1 sequence (P27958 1027-1711 C1454S/C1711G, one chain of several): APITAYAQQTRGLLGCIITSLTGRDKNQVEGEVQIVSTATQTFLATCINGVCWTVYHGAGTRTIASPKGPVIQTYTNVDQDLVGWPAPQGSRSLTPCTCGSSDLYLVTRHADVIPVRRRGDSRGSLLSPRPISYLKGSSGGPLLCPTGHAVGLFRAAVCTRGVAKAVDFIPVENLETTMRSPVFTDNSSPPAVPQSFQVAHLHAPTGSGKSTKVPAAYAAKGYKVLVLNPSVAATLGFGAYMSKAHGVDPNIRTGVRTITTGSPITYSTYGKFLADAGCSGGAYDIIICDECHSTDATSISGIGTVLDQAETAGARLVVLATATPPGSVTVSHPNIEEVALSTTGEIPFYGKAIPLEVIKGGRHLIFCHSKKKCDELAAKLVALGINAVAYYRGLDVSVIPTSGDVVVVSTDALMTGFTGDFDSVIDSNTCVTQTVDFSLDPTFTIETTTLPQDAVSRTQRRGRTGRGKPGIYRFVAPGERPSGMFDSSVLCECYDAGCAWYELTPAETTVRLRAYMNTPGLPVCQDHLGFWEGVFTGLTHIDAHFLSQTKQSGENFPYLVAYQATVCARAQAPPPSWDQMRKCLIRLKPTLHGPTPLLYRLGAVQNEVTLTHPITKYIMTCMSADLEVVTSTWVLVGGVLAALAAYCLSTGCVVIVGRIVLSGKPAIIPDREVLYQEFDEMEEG
From the text: HCV NS3 protease complexes, derived from the BMS strain, H77 strain or J4L6S strain, were generated, as described below. These purified recombinant proteins were generated for use in a homogeneous assay (see below) to provide an indication of how effective compounds of the present disclosure would be in inhibiting HCV NS3 proteolytic activity.
Serum from an HCV-infected patient was obtained from Dr. T. Wright, San Francisco Hospital. An engineered full-length cDNA (compliment deoxyribonucleic acid) template of the HCV genome (BMS strain) was constructed from DNA fragments obtained by reverse transcription-PCR (RT-PCR) of serum RNA (ribonucleic acid) and using primers selected on the basis of homology between other genotype 1a strains. From the determination of the entire genome sequence, a genotype 1a was assigned to the HCV isolate according to the classification of Simmonds et al. (See P Simmonds, K A Rose, S Graham, S W Chan, F McOmish, B C Dow, E A Follett, P L Yap and H Marsden, J. Clin. Microbiol., 31(6), 1493-1503 (1993)). […]

[2] = biological target: T2, porcine pancreatic elastase (PPE) (Sus scrofa, UniProt P00772); assay: Specificity assay, porcine pancreatic elastase; type: biochemical; conditions: read-out: PPE activity in the specificity assays (IC50)
T2 construct: purchased Sigma, EMDbiosciences
T2 sequence (P00772 27-266): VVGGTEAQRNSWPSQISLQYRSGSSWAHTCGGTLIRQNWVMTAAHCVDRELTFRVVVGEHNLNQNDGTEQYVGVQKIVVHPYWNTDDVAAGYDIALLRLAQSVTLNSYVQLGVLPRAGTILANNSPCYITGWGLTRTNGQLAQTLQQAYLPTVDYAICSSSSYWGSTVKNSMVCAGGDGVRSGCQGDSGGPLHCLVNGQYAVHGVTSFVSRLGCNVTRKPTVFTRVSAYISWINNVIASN
Method: The specificities of compounds of the present disclosure were determined against a variety of serine proteases: human neutrophil elastase (HNE), porcine pancreatic elastase (PPE) and human pancreatic chymotrypsin and one cysteine protease: human liver cathepsin B. In all cases a 96-well plate format protocol using either colorimetric p-nitroaniline (pNA) substrate or fluorometric Amino-Methyl-Coumarin (AMC) specific for each enzyme was used as described previously (PCT Patent Application No. WO 00/09543) with some modifications to the serine protease assays. All enzymes were purchased from Sigma, EMDbiosciences while the substrates were from Bachem, Sigma and EMDbiosciences.
The pNA assay for Chymotrypsin included a 1 h enzyme-inhibitor pre-incubation at room temperature followed by addition of substrate and hydrolysis to ˜15% conversion as measured on a Spectramax Pro microplate reader. Compound concentrations varied from 100 to 0.4 μM depending on their potency. Cathepsin B, HNE, and PPE assays each was initiated by addition of substrate to enzyme-inhibitor pre-incubated for 10 min at room temperature and hydrolysis to 15% conversion as measured on cytofluor.
50 mM Tris-HCl, pH 8.0, 50 mM NaCl, 0.1 mM EDTA, 3% DMSO, 0.02% Tween-20, 5 μM succ-AAPV-AMC and 20 nM HNE or 8 nM PPE;
The percentage of inhibition was calculated using the formula: [1−((UVinh−UVblank)/(UVctl−UVblank))]×100 […]

Compound: C=C[C@@H]1C[C@]1(NC(=O)[C@@H]1C[C@@H](Oc2nc(N(C)C)cc3cc(OC)ccc23)CN1C(=O)C(Nc1cc(C)cc(C)n1)C(C)(C)C)C(=O)NS(=O)(=O)C1CC1 (single isomer, unassigned) [Compound 18]
- IC50 [1]: 1.2 nM
- IC50 [2]: > 1560 nM
